Test results reported in patent US4847254A, “CNS affecting 5-oxy-3-aminomethyl-dihydro-benzofurans and benzothiophenes” (H. Lundbeck A/S, priority 1987, dated 1989).

Legend:
[1] = test system: DA-autoreceptors; test: Inhibition of spontaneous locomotor activity (motility inhibition) in rats; type: in vivo, rat (Wistar); settings: doses calculated as the free amine
[2] = test system: postsynaptic DA-receptors; test: Reversal of locomotor depression (hypomotility) in reserpine plus alpha-methyl-p-tyrosine pretreated rats; type: in vivo, rat (Wistar)
[3] = test system: DA-receptor; test: Contralateral circling in rats with unilateral 6-hydroxy-DA (6-OHDA) lesions; as to 6-OHDA Contr. Circle. rats (sc) Duration: test concentration or dose not given here; type: in vivo, rat (Wistar); settings: 6-OHDA-lesioned rats; for 6-OHDA Contr. Circle. rats (sc) ED50: doses calculated as the free amine; for 6-OHDA Contr. Circle. rats (sc) Duration: duration given instead of ED50
Experimental: Furthermore, the potency of the drug to induce contralateral circling behaviour in 6-hydroxy-DA-lesioned rats was determined. The specificity of this receptor resembles that of the […] DA receptors mediating motility inhibition.
The experiments were made according to published methods, using rats of the Wistar strain.
Therefore, also the ability of a test compound to induce contralateral circling in rats with unilateral 6-hydroxy-DA lesions was evaluated (loc cit.).

[4] = test system: presynaptic DA-receptors (DA-autoreceptors); settings: cited from earlier work

Row | Structure (SMILES) | Motility Inh. rats (sc) ED50 [1] [µmol/kg] | 6-OHDA Contr. Circle. rats (sc) ED50 [3] [µmol/kg] | Reserpin α-Mt Rev. rats (sc) ED50 [2] [µmol/kg] | other results
1 | CCN(CC)CC1CCc2ccc(O)cc21 (centres unmarked) [Lu 21-096, N,N-diethyl-6-hydroxy-1-indanmethylamine] | 1.0 | 0.19 |  | Reserpin α-Mt Rev. rats (sc) % at 5 μmol/kg [2]: 50%
2 | CCCN(CCC)CC1CCc2ccc(OC(=O)c3ccccc3OC(C)=O)cc21 (centres unmarked) [Lu 24-032, 6-(2-acetyloxybenzoyloxy)-N,N-dipropyl-1-indanmethylamine] |  |  |  | 6-OHDA Contr. Circle. rats (sc) Duration [3]: 4 h
3 | CCCN(CCC)CC1CCc2ccc(OC(=O)c3ccccc3C)cc21 (centres unmarked) [Lu 24-028] |  |  |  | 6-OHDA Contr. Circle. rats (sc) Duration [3]: 18 h
4 | CCCN(CCC)CC1COc2ccc(OC(=O)c3ccccc3N)cc21 (centres unmarked) [Lu 25-165, 5-(2-aminobenzoyloxy)-2,3-dihydro-N,N-dipropyl-3-benzofuranmethylamine] |  |  |  | 6-OHDA Contr. Circle. rats (sc) Duration [3]: > 6 h
5 | CCCN(C)CC1COc2ccc(O)cc21 (single isomer, unassigned; (+)) [Lu 25-020, (+)-5-hydroxy-2,3-dihydro-N-methyl-N-propyl-3-benzofuranmethylamine] | 4.1 | 0.95 | 65 | 
6 | CCN(CC)CC1COc2ccc(O)cc21 (centres unmarked) [Lu 24-088, 5-Hydroxy-2,3-dihydro-N,N-diethyl-3-benzofuranmethylamine] | 1.7 | 1.2 |  | Reserpin α-Mt Rev. rats (sc) % at 5 μmol/kg [2]: 13%
7 | CCCN(CCC)CC1CCc2ccc(OC(=O)c3ccccc3Cl)cc21 (centres unmarked) [Lu 24-031, 6-(2-chlorobenzoyloxy)-N,N-dipropyl-1-indanmethylamine] |  |  |  | 6-OHDA Contr. Circle. rats (sc) Duration [3]: 4 h
8 | CCCN(CCC)CC1CCc2ccc(OC(=O)c3c(F)cccc3F)cc21 (centres unmarked) [Lu 24-029, 6-(2,6-Difluorbenzoyloxy)-N,N-dipropyl-1-indanmethylamine] |  |  |  | 6-OHDA Contr. Circle. rats (sc) Duration [3]: 4 h
9 | CCCN(CCC)CC1COc2ccc(O)cc21 (single isomer, unassigned; (-)) [Lu 24-121, (-)-5-hydroxy-2,3-dihydro-N,N-dipropyl-3-benzofuranmethylamine] | 5.4 | 1.7 | 86 | 
10 | CCCN(CCC)CC1CCc2ccc(OC(=O)c3ccccc3F)cc21 (centres unmarked) [Lu 24-033, 6-(2-fluorbenzoyloxy)-N,N-dipropyl-1-indanmethylamine] |  |  |  | 6-OHDA Contr. Circle. rats (sc) Duration [3]: 4 h
11 | CCCN(CCC)CC1CCc2ccc(O)cc21 (single isomer, unassigned; (-)) [Lu 22-050, (-)-N,N-dipropyl-6-hydroxy-1-indanmethylamine] | 1.3 | 0.45 | 60 | 
12 | CCCN(CCC)CC1CCc2ccc(O)cc21 (centres unmarked) [Lu 21-051, N,N-dipropyl-6-hydroxy-1-indanmethylamine] | 0.45 | 0.35 |  | Reserpin α-Mt Rev. rats (sc) % at 5 μmol/kg [2]: 44%
13 | CCCN(CCC)CC1COc2ccc(O)cc21 (single isomer, unassigned; (+)) [Lu 24-122, (+)-5-hydroxy-2,3-dihydro-N,N-dipropyl-3-benzofuranmethylamine] | 0.81 | 0.16 |  | 
14 | CCCN(CCC)CC1CCc2ccc(OC(=O)c3ccccc3OC)cc21 (centres unmarked) [Lu 24-030, 6-(2-methoxybenzoyloxy)-N,N-dipropyl-1-indanmethylamine] |  |  |  | 6-OHDA Contr. Circle. rats (sc) Duration [3]: 4 h
15 | CCN(CC)CC1CCc2ccc(O)cc21 (single isomer, unassigned; (-)) [Lu 22-105, (-) N,N-diethyl-6-hydroxy-1-indanmethylamine] | 0.87 | 1.2 | 120 | 
16 | CCCN(CCO)CC1COc2ccc(O)cc21 (centres unmarked) [Lu 24-102, 5-Hydroxy-2,3-dihydro-N-(2-hydroxyethyl)-N-propyl-3-benzofuranmethylamine] | 5.4 | 2.1 | 19 | 
17 | CCCN(CCc1ccccc1)CC1CCc2ccc(O)cc21 (centres unmarked) [Lu 21-113, 6-Hydroxy-N-propyl-N-(2-phenylethyl)-1-indanmethylamine] | 0.51 | 0.12 |  | Reserpin α-Mt Rev. rats (sc) % at 5 μmol/kg [2]: 63%
18 | CCCN(CCC)CC1CCc2ccc(OC)cc21 (centres unmarked) [Lu 21-097, N,N-dipropyl-6-methoxy-1-indanmethylamine] | > 14 | > 14 |  | 

Row | Structure (SMILES) | Motility Inh. rats (sc) ED50 [1] [µmol/kg] | 6-OHDA Contr. Circle. rats (sc) ED50 [3] [µmol/kg] | Reserpin α-Mt Rev. rats (sc) ED50 [2] [µmol/kg] | other results
19 | CCCNCC1CCc2ccc(O)cc21 (centres unmarked) [Lu 21-138, 6-Hydroxy-N-propyl-1-indanmethylamine] | 19 | 10 |  | 
20 | CCN(CC)CC1CCc2ccc(OC(=O)C(C)(C)C)cc21 (centres unmarked) [Lu 23-020, 6-pivaloyloxy-N,N-diethyl-1-indanmethylamine] | 0.84 | 0.33 |  | 
21 | CCCN(CCC)CC1COc2ccc(O)cc21 (centres unmarked) [Lu 23-130, 5-Hydroxy-2,3-dihydro-N,N-dipropyl-3-benzofuranmethylamine] | 0.5 to 2 | 0.35 | 3.4 | 
22 | CCN(CC)CC1CCc2ccc(O)cc21 (single isomer, unassigned; (+)) [Lu 22-106, (+) N,N-diethyl-6-hydroxy-1-indanmethylamine] | 1.1 | 0.36 | 14 | 
23 | CCCN(C)CC1COc2ccc(O)cc21 (centres unmarked) [Lu 24-103, 5-Hydroxy-2,3-dihydro-N-methyl-N-propyl-3-benzofuranmethylamine] | 4.5 | 1.2 | 290 | 
24 | CCCN(CCc1ccccc1)CC1COc2ccc(O)cc21 (centres unmarked) [Lu 24-084, 5-Hydroxy-2,3-dihydro-N-(2-phenylethyl)-N-propyl-3-benzofuranmethylamine] | 1.9 | 0.94 | 11 | 
25 | CN(C)CC1CCc2ccc(O)cc21 (centres unmarked) [Lu 21-112, N,N-dimethyl-6-hydroxy-1-indanmethylamine] | 5.7 | 0.95 | 12 | 
26 | CCCN(CCC)CC1COc2ccc(OC(=O)c3ccccc3C)cc21 (centres unmarked) [Lu 24-074, 5-(2-Methylbenzoyloxy)-2,3-dihydro-N,N-dipropyl-3-benzofuranmethylamine] |  |  |  | 6-OHDA Contr. Circle. rats (sc) Duration [3]: 15 h
27 | CCCN(CCC)CC1CSc2ccc(O)cc21 (centres unmarked) [Lu 24-100, 5-Hydroxy-2,3-dihydroxy-N,N-dipropyl-3-benzothiophenmethylamine] | 3.0 | 4.6 | 20 | 
28 | CCCN(CCC)CC1CCc2ccc(O)cc21 (single isomer, unassigned; (-)) [Lu 22-049, (-)-N,N-dipropyl-6-hydroxy-1-indanmethylamine] | 0.26 | 0.18 | 4.5 | 
29 | CCCN(C)CC1CCc2ccc(O)cc21 (centres unmarked) [Lu 25-009, 6-Hydroxy-N-methyl-N-propyl-1-indanmethylamine] | 0.65 | 0.82 | 66 | 
30 | CCCN(CCc1cccs1)CC1COc2ccc(O)cc21 (centres unmarked) [Lu 24-155, 5-Hydroxy-2,3-dihydro-N-propyl-N-(2-thienyl-2-ethyl)-3-benzofuranmethylamine] | 7.0 | 1.2 | 28 | 
31 | CCCN(CCC)CC1COc2ccc(OC(=O)NC(C)C)cc21 (centres unmarked) [Lu 25-158, 5-isopropylaminocarbonyloxy-2,3-dihydro-N,N-dipropyl-3-benzofuranmethylamine] |  |  |  | 6-OHDA Contr. Circle. rats (sc) Duration [3]: 4 h
32 | CCCN(C)CC1COc2ccc(O)cc21 (single isomer, unassigned; (-)) [Lu 25-021, (-)-5-hydroxy-2,3-dihydro-N-methyl-N-propyl-3-benzofuranmethylamine] | 5.4 | 5.2 | 290 | 
33 | CN1CCc2cccc3c2[C@H]1Cc1ccc(O)c(O)c1-3 [Apomorphine, apomorphine, reference compound] | 0.64 | 0.06 | 0.27 | clinical success at low doses ([4]; low doses, patients with schizophrenia and tardive dyskinesias): used with some success; selectivity of action at DA autoreceptors vs postsynaptic DA receptors ([4]; postsynaptic DA receptors stimulated by slightly higher doses): no selective action at DA autoreceptors
34 | CCCN(CCC)CC1COc2ccc(OC(=O)C(C)(C)C)cc21 (centres unmarked) [Lu 24-042, 5-Pivaloyloxy-2,3-dihydro-N,N-dipropyl-3-benzofuranmethylamine] |  | 0.40 |  | 
35 | CCN(CC)CC1CCc2ccc(OC(=O)Nc3ccc(C(C)C)cc3)cc21 (centres unmarked) [Lu 25-177, 6-(4-isopropylphenylaminocarbonyloxy)-N,N-diethyl-1-indanmethylamine] |  |  |  | 6-OHDA Contr. Circle. rats (sc) Duration [3]: > 6 h
36 | CCCCN(CCCC)CC1CCc2ccc(O)cc21 (centres unmarked) [Lu 22-028, N,N-Dibutyl-6-hydroxy-1-indanmethylamine] | 13 | > 14 |  | 
